From patent publication US11844795B2, “Combination therapy for cancer treatment” (Ipsen Biopharm Ltd., priority 2015, dated 2023)

Legend:
[1] = Estimated tumor range
[2] = tested on: DMS-114 small cell lung cancer cells; assay: % cell number over time, SN-38 with PARP inhibitors; assay type: cell-based; details: SN-38 at 2 nM; DMS-114 SCLC cells
[3] = tested on: CFPAC-1 pancreatic cancer cells; assay: as above; assay type: cell-based; details: SN-38 at 2 nM
[4] = tested on: small cell lung cancer (SCLC), pancreatic cancer and breast cancer cell lines; assay: Growth inhibition, SN-38 with PARP inhibitors; assay type: cell-based
[5] = molecular target: SIRT2 (Homo sapiens, UniProt Q8IXJ6); details: cited from earlier work
[6] = tested on: PAR; details: Table 2B, unit inferred; cited from earlier work
[7] = tested on: cancer cells; assay: Active range based on XTC008
[8] = tested on: C33A cervical cancer xenograft; assay: C33A cervical cancer xenograft model; details: MM-398 2 mg/kg weekly Day 1; veliparib 50 mg/kg orally Days 4-6; FIG. 7B
[9] = tested on: MS751 cervical cancer xenograft; assay: MS751 cervical cancer xenograft model; details: MM-398 5 mg/kg weekly Day 1; veliparib 50 mg/kg orally Days 4-6; FIG. 7A
[10] = molecular target: PARP 1 (Homo sapiens, UniProt P09874); details: cell-free assay; cited from earlier work
[11] = tested on: BT20; assay: Cell survival (CellTiter-Glo) after SN-38 and/or PARP inhibitor; assay type: cell-based
Protocol: (§1) Cells were plated at 1000 cells/well and then incubated for 24 hours. […] The plates were then allowed to incubate for 72 hours period. After the 72 hour incubation period the media was removed and cell viability was determined using the CellTiter-Glo® cell viability assay (Promega, Madison Wis.) according to the product instructions.

[12] = tested on: HCC1187; assay: as above; assay type: cell-based; details: Homo sapiens, HCC1187, read-out: IC50 log10 (μM) (converted)
Protocol: as §1

[13] = tested on: HCC1954; assay: as above; assay type: cell-based
Protocol: as §1

[14] = tested on: HCC38; assay: as above; assay type: cell-based
Protocol: as §1

[15] = tested on: SUM159PT; assay: as above; assay type: cell-based
Protocol: as §1

[16] = molecular target: PARG (Homo sapiens, UniProt Q86W56); details: cited from earlier work
PARG, sequence (Q86W56 whole entry, species assumed): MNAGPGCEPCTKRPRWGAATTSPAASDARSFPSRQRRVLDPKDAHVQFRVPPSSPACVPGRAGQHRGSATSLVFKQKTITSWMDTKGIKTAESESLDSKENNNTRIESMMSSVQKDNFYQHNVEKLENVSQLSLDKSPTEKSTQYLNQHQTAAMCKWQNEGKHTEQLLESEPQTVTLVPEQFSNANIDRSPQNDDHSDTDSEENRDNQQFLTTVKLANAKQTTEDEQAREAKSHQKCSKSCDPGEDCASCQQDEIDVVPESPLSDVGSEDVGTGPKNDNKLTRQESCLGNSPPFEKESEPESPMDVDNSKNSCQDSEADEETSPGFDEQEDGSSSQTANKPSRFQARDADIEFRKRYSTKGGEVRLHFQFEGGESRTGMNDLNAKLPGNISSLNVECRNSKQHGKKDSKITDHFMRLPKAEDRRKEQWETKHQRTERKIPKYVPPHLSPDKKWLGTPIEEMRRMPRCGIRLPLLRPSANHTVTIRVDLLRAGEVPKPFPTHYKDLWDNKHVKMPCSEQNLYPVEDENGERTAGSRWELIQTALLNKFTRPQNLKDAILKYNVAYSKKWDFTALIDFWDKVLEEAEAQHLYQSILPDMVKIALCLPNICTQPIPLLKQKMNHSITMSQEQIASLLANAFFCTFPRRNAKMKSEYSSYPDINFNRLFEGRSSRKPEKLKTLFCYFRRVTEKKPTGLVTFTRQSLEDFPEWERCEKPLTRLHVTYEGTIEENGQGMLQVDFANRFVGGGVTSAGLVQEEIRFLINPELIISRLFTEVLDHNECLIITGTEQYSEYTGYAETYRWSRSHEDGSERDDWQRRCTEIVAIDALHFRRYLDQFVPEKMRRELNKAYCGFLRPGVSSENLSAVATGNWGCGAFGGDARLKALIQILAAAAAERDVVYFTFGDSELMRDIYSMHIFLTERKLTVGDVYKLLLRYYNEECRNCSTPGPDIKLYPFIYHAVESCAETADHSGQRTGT

PARP 1, sequence (P09874 whole entry, species assumed): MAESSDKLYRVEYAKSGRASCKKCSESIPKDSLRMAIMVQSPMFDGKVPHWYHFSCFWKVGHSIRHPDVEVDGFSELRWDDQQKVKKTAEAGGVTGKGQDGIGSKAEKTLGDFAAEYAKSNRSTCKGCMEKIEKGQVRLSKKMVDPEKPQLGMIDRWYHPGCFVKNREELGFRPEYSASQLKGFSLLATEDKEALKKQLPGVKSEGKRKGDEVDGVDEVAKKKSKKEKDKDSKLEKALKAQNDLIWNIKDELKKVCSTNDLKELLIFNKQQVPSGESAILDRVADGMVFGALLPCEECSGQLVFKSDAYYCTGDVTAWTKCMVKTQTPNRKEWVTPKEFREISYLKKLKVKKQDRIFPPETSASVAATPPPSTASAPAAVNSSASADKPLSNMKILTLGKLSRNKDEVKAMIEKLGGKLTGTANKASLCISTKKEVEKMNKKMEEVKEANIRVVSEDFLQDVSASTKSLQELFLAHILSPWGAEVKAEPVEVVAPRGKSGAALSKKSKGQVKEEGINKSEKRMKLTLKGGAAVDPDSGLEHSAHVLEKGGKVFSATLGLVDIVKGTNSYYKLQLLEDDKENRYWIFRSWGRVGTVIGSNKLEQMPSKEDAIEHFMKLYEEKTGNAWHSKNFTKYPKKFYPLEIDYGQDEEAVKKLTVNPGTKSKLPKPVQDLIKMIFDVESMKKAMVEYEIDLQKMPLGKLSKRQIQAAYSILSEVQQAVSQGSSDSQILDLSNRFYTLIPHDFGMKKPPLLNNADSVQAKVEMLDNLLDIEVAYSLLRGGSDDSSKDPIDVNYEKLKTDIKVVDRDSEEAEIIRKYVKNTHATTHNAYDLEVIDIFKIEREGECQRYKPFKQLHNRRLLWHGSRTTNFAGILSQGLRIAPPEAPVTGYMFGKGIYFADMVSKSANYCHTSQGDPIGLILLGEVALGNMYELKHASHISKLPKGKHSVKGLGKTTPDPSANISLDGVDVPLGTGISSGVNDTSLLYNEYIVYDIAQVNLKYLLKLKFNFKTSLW
SIRT2, sequence (Q8IXJ6 whole entry, species assumed): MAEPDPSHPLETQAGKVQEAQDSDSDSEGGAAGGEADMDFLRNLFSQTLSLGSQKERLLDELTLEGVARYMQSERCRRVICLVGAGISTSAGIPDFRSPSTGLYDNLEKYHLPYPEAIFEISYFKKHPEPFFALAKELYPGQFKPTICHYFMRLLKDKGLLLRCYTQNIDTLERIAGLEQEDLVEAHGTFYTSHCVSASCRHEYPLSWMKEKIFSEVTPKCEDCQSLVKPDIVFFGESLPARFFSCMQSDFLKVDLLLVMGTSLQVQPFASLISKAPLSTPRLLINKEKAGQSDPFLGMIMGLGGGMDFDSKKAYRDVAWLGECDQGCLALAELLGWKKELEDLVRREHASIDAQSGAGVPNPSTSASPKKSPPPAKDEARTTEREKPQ

Compound: C[C@]1(c2nc3c(C(N)=O)cccc3[nH]2)CCCN1 [Veliparib]
- Estimated tumor range [1]: >2000 nM
- effect of combination with SN-38 [2]: Additive/synergistic effects
- effect of combination with SN-38 [3]: Additive/synergistic effects
- growth inhibition of the cancer cells in combination with SN-38 ([4]; 2 nM SN-38): additive/synergistic growth inhibition
- potency in the combination with SN-38 ([4]; compared with olaparib and rucaparib): slightly less potent in the combination with SN-38 than olaparib and rucaparib
- activity on SIRT2 [5]: inactive
- EC50 [6]: 0.0059 µM
- Active Range based on XTC008 [7]: 1000 to 10000 nM
- efficacy (tumor growth) [8]: neither MM-398 or veliparib were efficacious as single agents
- efficacy (tumor growth) [9]: not efficacious

Compound: CN(C)Cc1ccc(-c2nc3cccc4c3n2CCNC4=O)cc1 [AG-14361]
- Ki [10]: < 0.005 µM

Compound: Cn1ncnc1[C@H]1c2n[nH]c(=O)c3cc(F)cc(c23)N[C@@H]1c1ccc(F)cc1 [Talazoparib]
- Maximum Kill Percent ([11]; BT20, Exp. 4, single agent): 100%
- IC50 ([11]; Homo sapiens, BT-20, read-out: IC50 log10 (μM) (converted)): 28.2 µM
- IC50 [12]: 191 µM
- Maximum Kill Percent ([13]; HCC1954, Exp. 4, single agent): 100%
- IC50 ([13]; Homo sapiens, HCC1954, read-out: IC50 log10 (μM) (converted)): 4370 µM
- Maximum Kill Percent ([14]; HCC38, Exp. 4, single agent): 92%
- IC50 ([14]; Homo sapiens, HCC38, read-out: IC50 log10 (μM) (converted)): 0.0589 µM
- IC50 ([15]; Homo sapiens, SUM-159-PT, read-out: IC50 log10 (μM) (converted)): 0.0933 µM
- Maximum Kill Percent ([15]; SUM159PT, Exp. 4, single agent): 94%
- inhibition of PARG [16]: does not inhibit
- EC50 [6]: 0.0025 µM
